This is an account of results in the SangsterLogP compilation.

This data set is described as follows: method code SF-HPLC, from DOI: 10.1016/j.bmc.2003.11.030, PMID: 14759727.

Take `CCCCc1ccc2[nH]c(NCCc3c[nH]cn3)nc2c1`: the logD – broadly, the decadic logarithm of the distribution of all forms, ionised or not, between an organic phase and buffer at a given pH – (pH 11.0) came to 3.64. Compound `CCOC(=O)c1ccc2[nH]c(NCCc3c[nH]cn3)nc2c1` yielded a logD (pH 7.4) of 2.28. `CCCCc1ccc2[nH]c(NCCCc3c[nH]cn3)nc2c1` displayed a logD (pH 11.0) of 3.93. `Nc1ccc2[nH]c(NCCCc3c[nH]cn3)nc2c1` displayed a logD (pH 11.0) of 0.17.

With `Clc1ccc2[nH]c(NCCc3c[nH]cn3)nc2c1`, for the setting “pH 7.4”, the logD came out at 2.31. The compound `Cc1ccc2[nH]c(NCCCc3c[nH]cn3)nc2c1` showed a logD (pH 11.0) of 2.26. Same read-out and setting: to `c1ccc2[nH]c(NCCc3c[nH]cn3)nc2c1` belongs 1.49; to `CNC(=O)c1ccc2[nH]c(NCCc3c[nH]cn3)nc2c1`, 0.48.

For the compound `Nc1ccc2[nH]c(NCCc3c[nH]cn3)nc2c1`, under “pH 11.0”, the pH-dependent lipophilicity (logD) was 0.01. Under “pH 7.4”, `O=[N+]([O-])c1ccc2[nH]c(NCCc3c[nH]cn3)nc2c1` registered a logD of 1.81.

As to `c1ccc2[nH]c(NCCCc3cnc[nH]3)nc2c1`, the logD (pH 11.0) was 1.78. Under “pH 11.0”, `COc1ccc2[nH]c(NCCc3c[nH]cn3)nc2c1` displayed a logD of 1.43. For the compound `FC(F)(F)c1ccc2[nH]c(NCCc3c[nH]cn3)nc2c1`, the logD (pH 7.4) was found to be 2.82. Take `c1nc(CCNc2nc3cc4c(cc3[nH]2)OCO4)c[nH]1`: under “pH 11.0”, the logD was determined as 1.44. Under “pH 7.4”, `FC(F)(F)c1ccc2[nH]c(NCCCc3c[nH]cn3)nc2c1` yielded a logD of 3.03.
